The melting point is the temperature of the solid-liquid transition. Usually IC50 stands for the point on the concentration scale where inhibition reaches its midpoint.

Experimental findings from article PMC9699089 (Pathogens, 2022) are described below.

Where a name gives a salt, the structure may show the parent alone. A value given as a limit tells only on which side of the number the result lay.

Data set [1] deals with T. brucei brucei AnTat 1.9. Put plainly: In vitro antitrypanosomal activity, Alamar Blue assay. Type of data set: cell-based, Trypanosoma brucei brucei. The note with it: Trypanosoma brucei, slender bloodstream trypomastigotes, AnTat 1.9 strain; mean +/- SD of three independent experiments; read-out: Trypanosoma brucei brucei IC50 Values Trypanos Antat 1.9. The protocol:
The effects of the tested compounds on the growth of T. brucei brucei were assessed using an Alamar Blue® assay described by Räz et al. T. brucei brucei AnTat 1.9 ([…], Belgium) was cultured in MEM with Earle's salts, supplemented according to the protocol of Baltz et al. […] All doses were tested in duplicate. Appropriate controls treated with solvents 0.9% NaCl or DMSO or with suramin, pentamidine, eflornithine, and fexinidazole (reference drugs purchased from Sigma Aldrich and Fluorochem, UK) were added to each set of experiments. After 69 h incubation period at 37 °C, 10 μL of the viability marker Alamar Blue (Fisher) was added to each well, and the plates were incubated for 5 h. The plates were read in a PerkinElmer ENSPIRE (Germany) microplate reader using an excitation wavelength of 530 nm and an emission wavelength of 590 nm.
A general note: The colour change of resazurin is a common sign of viable cells or microbes.

For data set [2], the system named is L. donovani (MHOM/IN/00/DEVI) promastigotes. Put plainly: In vitro antileishmanial activity on promastigotes, MTT assay. Type of data set: cell-based. The note with it: Leishmania donovani, 72 h incubation, mean +/- SD of three independent experiments. As to the method:
L. donovani (MHOM/IN/00/DEVI) used in this study was provided by the CNR Leishmania (Montpellier, France). The effects of the tested compounds on the growth of L. donovani (MHOM/IN/00/DEVI) promastigotes were assessed by MTT assay. Briefly, promastigotes in log-phase in Schneider’s medium supplemented with 20% fetal calf serum (FCS), 2 mM L-glutamine and antibiotics (100 U/mL penicillin and 100 µg/mL streptomycin), were incubated at an average density of 10^6 parasites/mL in sterile 96-well plates with various concentrations of compounds previously dissolved in DMSO (final concentration less than 0.5% v/v), in duplicate. […] Duplicate assays were performed for each sample. After the 72 h incubation period at 27 °C, parasite metabolic activity was determined. Each well was microscopically examined for precipitate formation. To each well was added 10 µL of 10 mg/mL MTT [3-(4,5-dimethylthiazol-2-yl)-2,5-diphenyltetrazolium bromide)] solution followed by 4 h incubation time. The enzyme reaction was stopped by addition of 100 µL of 50% isopropanol/10% sodium dodecyl sulfate. Plates were vigorously shaken (300 rpm) for 10 min, and the absorbance was measured at 570 nm with 630 nm as reference wavelength in a BIOTEK ELx808 Absorbance Microplate Reader (Agilent Technologies, Les Ulis, France). […] IC50 of the parasite’s growth (half maximal inhibitory concentration or IC50 values) were then calculated from the obtained experimental results using a previously described regression program. IC50 values were calculated from three independent experiments.
A general note: Tetrazolium dyes change colour on reduction, which living cells bring about.

Data set [3] relates to human duplex sequence FdxT. Description: FRET melting assay, duplex control FdxT. Type of data set: binding. The note with it: compound 2 μM, oligonucleotide 0.2 μM, K+ conditions. The protocol:
(§1) These were performed with dual-labeled oligonucleotides mimicking the Plasmodium telomeric sequences FPf1T [FAM-5′(GGGTTTA)3-GGG3′-TAMRA] and FPf8T [FAM-5′(GGGTTCA)3GGG3′-TAMRA], the Trypanosoma 9 and 11 chromosomic sequence FTrypBT (also named FEBR1T) [FAM-5′[…]3′-TAMRA], the human telomeric sequence F21T [FAM-(GGGTTA)3-GGG3′-TAMRA] and the human duplex sequence FdxT [FAM5′-[…]-hexaethyleneglycol-[…]3′-TAMRA] [27, 31, 47]. The oligonucleotides were pre-folded in 10 mM lithium cacodylate buffer (pH 7.2), with 10 mM KCl and 90 mM LiCl (K^+ condition). The FAM emissions were recorded at 516 nm using a 492-nm excitation wavelength in the absence and presence of a single compound as a function of temperature (25 to 95 °C) in 96-well microplates using a Stratagene MX3000P real-time PCR device at a rate of 1 °C∙min-1. Data were normalized between 0 and 1, and the required temperature for half-denaturation of oligonucleotides corresponding to the emission value of 0.5 was taken as the Tm. Each experiment was performed in duplicate with 0.2 µM of labeled oligonucleotide and 2 µM of compound under K^+ condition. For each compound, three independent experiments were carried out.

Data set [4] concerns Plasmodium telomeric sequence FPf8T G-quadruplex. Put plainly: FRET melting assay, FPf8T. Type of data set: binding, Plasmodium falciparum. The note with it: compound 2 μM, oligonucleotide 0.2 μM, K+ conditions. The protocol:
as §1

The test system of data set [5] is Plasmodium falciparum CQ-sensitive strain 3D7. Put plainly: In vitro antiplasmodial activity, SYBR Green I fluorescence-based method, strain 3D7. Type of data set: cell-based. The note with it: CQ-sensitive strain 3D7, 48 h incubation, mean of three independent experiments, read-out: P. falciparum Strains IC50 Values 3D7. As to the method:
(§2) The in vitro antiplasmodial activities were tested over concentrations ranging from 39 nM to 40 µM against culture-adapted Plasmodium falciparum reference strains 3D7 and W2. […] These two strains are obtained from the collection of the National Museum of Natural History (Paris, France). The parasites were cultivated in RPMI medium (Sigma Aldrich, Lyon, France) supplemented with 0.5% Albumax I (Life Technologies Corporation, Paisley, UK), hypoxanthine (Sigma Aldrich), and gentamicin (Sigma Aldrich) with human erythrocytes and were incubated at 37 °C in a candle jar, as described previously. The P. falciparum drug susceptibility test was carried out in 96-well flat bottom sterile plates in a final volume of 250 µL. After 48 h incubation period with the drugs, quantities of DNA in treated and control cultures of parasites in human erythrocytes were quantified using the SYBR Green I (Sigma Aldrich) fluorescence-based method. Briefly, after incubation, plates were frozen at -20 °C until use. Plates were then thawed for 2 h at room temperature, and 100 µL of each homogenized culture was transferred to a well of a 96-well flat bottom sterile black plate (Nunc, Inc.) that contained 100 µL of the SYBR Green I lysis buffer (2xSYBR Green, 20 mM Tris base pH 7.5, 5 mM EDTA, 0.008% w/v saponin, 0.08% w/v Triton X-100). […] Plates were incubated for 1 h at room temperature and then read on a fluorescence plate reader (Tecan, Austria) using excitation and emission wavelengths of 485 and 535 nm, respectively.

For data set [6], the system named is Plasmodium falciparum CQ-resistant strain W2. Description: In vitro antiplasmodial activity, SYBR Green I fluorescence-based method, strain W2. The note with it: CQ-resistant strain W2, 48 h incubation, mean of three independent experiments, read-out: P. falciparum Strains IC50 Values W2. Type of data set: cell-based. The protocol: as §2
Data set [7] deals with human telomeric sequence F21T G-quadruplex. Put plainly: FRET melting assay, F21T. The note with it: compound 2 μM, oligonucleotide 0.2 μM, K+ conditions. Type of data set: binding. The protocol: as §1
For data set [8], the system named is Trypanosoma 9 and 11 chromosomic sequence FTrypBT (FEBR1T) G-quadruplex. Description: FRET melting assay, FtrypBT. The note with it: compound 2 μM, oligonucleotide 0.2 μM, K+ conditions. Type of data set: binding, Trypanosoma brucei brucei. As to the method: as §1
For data set [9], the system named is Plasmodium telomeric sequence FPf1T G-quadruplex. Put plainly: FRET melting assay, FPf1T. Type of data set: binding, Plasmodium falciparum. The note with it: compound 2 μM, oligonucleotide 0.2 μM, K+ conditions. As to the method: as §1

`c1ccc(-c2cc(CNCCCc3ccncc3)nc3c2ccc2c(-c4ccccc4)cc(CNCCCc4ccncc4)nc23)cc1` (as salt: ammonium) [Compound 1p] came in with a melting point of 99 to 101 °C.

Regarding `CN(C)CCCCNCc1cc(-c2ccccc2)c2ccc3c(-c4ccccc4)cc(CNCCCCN(C)C)nc3c2n1` (as salt: ammonium) [Compound 1c, 2,9-Bis[(4-dimethylaminobutyl)aminomethyl]-4,7-diphenyl-1,10-phenanthroline], the melting point was 111 to 113 °C. Same read-out and setting: the value for `CN(C)CCCNCc1cc(-c2ccccc2)c2ccc3c(-c4ccccc4)cc(CNCCCN(C)C)nc3c2n1` (as salt: ammonium) [Compound 1b, 2,9-Bis[(3-dimethylaminopropyl)aminomethyl]-4,7-diphenyl-1,10-phenanthroline] was 161 to 163 °C.

With `CSc1ccc(OCc2ncc([N+](=O)[O-])n2C)cc1` [Fexinidazole, reference compound], the IC50 in data set [1] stood at 590 ± 39 nM.

`CN(C)CCCCCNCc1cc(-c2ccccc2)c2ccc3c(-c4ccccc4)cc(CNCCCCCN(C)C)nc3c2n1` (as salt: ammonium) [Compound 1d, 2,9-Bis[(5-dimethylaminopentyl)aminomethyl]-4,7-diphenyl-1,10-phenanthroline] gave a melting point of 119 to 121 °C. In turn, `C[C@@H]1[C@H](O)[C@@H](C)/C=C/C=C/C=C/C=C/C=C/C=C/C=C/[C@H](O[C@@H]2O[C@H](C)[C@@H](O)[C@H](N)[C@@H]2O)C[C@@H]2O[C@](O)(C[C@@H](O)C[C@@H](O)[C@H](O)CC[C@@H](O)C[C@@H](O)CC(=O)O[C@H]1C)C[C@H](O)[C@H]2C(=O)O` [Amphotericin B, reference compound] had an IC50 in data set [2] of 100 ± 40 nM.

For the compound `c1ccc(-c2cc(CNCCCN3CCCCC3)nc3c2ccc2c(-c4ccccc4)cc(CNCCCN4CCCCC4)nc23)cc1` (as salt: ammonium) [Compound 1k], the melting point is 141 to 143 °C. In turn, `c1ccc(-c2cc(CNCCc3cccnc3)nc3c2ccc2c(-c4ccccc4)cc(CNCCc4cccnc4)nc23)cc1` (as salt: ammonium) [Compound 1n] came in with a melting point of 164 to 166 °C. On the same count and under the same terms, then `c1ccc(-c2cc(CNCCN3CCOCC3)nc3c2ccc2c(-c4ccccc4)cc(CNCCN4CCOCC4)nc23)cc1` (as salt: ammonium) [Compound 1h], with 194 to 196 °C; and `c1ccc(-c2cc(CNCCc3ccncc3)nc3c2ccc2c(-c4ccccc4)cc(CNCCc4ccncc4)nc23)cc1` (as salt: ammonium) [Compound 1o], with 147 to 149 °C; and `c1ccc(-c2cc(CNCCCN3CCOCC3)nc3c2ccc2c(-c4ccccc4)cc(CNCCCN4CCOCC4)nc23)cc1` (as salt: ammonium) [Compound 1i], with 174 to 176 °C. In the case of `CN1CCN(CCCNCc2cc(-c3ccccc3)c3ccc4c(-c5ccccc5)cc(CNCCCN5CCN(C)CC5)nc4c3n2)CC1` (as salt: ammonium) [Compound 1f], the melting point is 205 to 207 °C.

Compound `CN(C)CCNCc1cc(-c2ccccc2)c2ccc3c(-c4ccccc4)cc(CNCCN(C)C)nc3c2n1` (as salt: ammonium) [Compound 1a, 2,9-Bis[(2-dimethylaminoethyl)aminomethyl]-4,7-diphenyl-1,10-phenanthroline] displayed a melting point of 179 to 181 °C. Regarding `Cc1ccc(C(=O)Nc2ccc(S(=O)(=O)O)c3cc(S(=O)(=O)O)cc(S(=O)(=O)O)c23)cc1NC(=O)c1cccc(NC(=O)Nc2cccc(C(=O)Nc3cc(C(=O)Nc4ccc(S(=O)(=O)O)c5cc(S(=O)(=O)O)cc(S(=O)(=O)O)c45)ccc3C)c2)c1` [Suramine, reference compound], in data set [1], the IC50 worked out at 30 ± 3 nM.

With `CN(C)CCNCc1cc(-c2ccccc2)c2ccc3c(-c4ccccc4)cc(CNCCN(C)C)nc3c2n1` [Compound 1a, 2,9-Bis[(2-dimethylaminoethyl)aminomethyl]-4,7-diphenyl-1,10-phenanthroline], in [3], the “ΔTm FdxT” value is −0.3 °C. The IC50 in data set [2] is greater than 12500 nM; in data set [1], 670 ± 30 nM; in data set [5], 1800 ± 670 nM; in [6] it was 1000 ± 340 nM. Besides, in data set [4], the “ΔTm FPf8T” value was found to be 1.6 °C. The “ΔTm F21T” value in [7] was determined as 1.8 °C. In addition, in data set [8], the “ΔTm FtrypBT” value was 1.9 °C. Also, in [9], the “ΔTm FPf1T” value worked out at 1.8 °C. `c1ccc(-c2cc(CNCCc3ccccn3)nc3c2ccc2c(-c4ccccc4)cc(CNCCc4ccccn4)nc23)cc1` (as salt: ammonium) [Compound 1m] yielded a melting point of 165 to 167 °C. Same read-out and setting: the value for `CN1CCN(CCCCNCc2cc(-c3ccccc3)c3ccc4c(-c5ccccc5)cc(CNCCCCN5CCN(C)CC5)nc4c3n2)CC1` (as salt: ammonium) [Compound 1g] was 207 to 209 °C; that for `CN1CCN(CCNCc2cc(-c3ccccc3)c3ccc4c(-c5ccccc5)cc(CNCCN5CCN(C)CC5)nc4c3n2)CC1` (as salt: ammonium) [Compound 1e] was 185 to 187 °C; that for `c1ccc(-c2cc(CNCCN3CCCCC3)nc3c2ccc2c(-c4ccccc4)cc(CNCCN4CCCCC4)nc23)cc1` (as salt: ammonium) [Compound 1j] was 192 to 194 °C. Same read-out and setting: then `c1ccc(-c2cc(CNCCCN3CCCC3)nc3c2ccc2c(-c4ccccc4)cc(CNCCCN4CCCC4)nc23)cc1` (as salt: ammonium) [Compound 1l], with 145 to 147 °C.
